In EP0024776A1, “4-Phenyl and 5-phenyl-1,4,5,6-tetrahydropyrimidine derivatives, pharmaceutical compositions containing said derivatives, and process for preparing said derivatives” (SYNTEX (U.S.A.) INC., priority 1979, dated 1981):

Experiments:
[1] = system: reserpine-induced hypothermia; assay: Reversal of reserpine-induced hypothermia in mice (potential antidepressant activity); format: in vivo; settings: Mus musculus, po; minimum effective dose, p.o., statistically significant reversal of hypothermia induced by reserpine 5mg/kg i.p.; body temperature 1-4 hours post-drug; read-out: MED
Procedure: REVERSAL OF RESERPINE-INDUCED HYPOTHERMIA IN MICE
The assay was used to evaluate the potential antidepressant activity of compounds of this invention.
Male Swiss-Webster Institute for Cancer Research mice weighing 18-24g were utilized for these experiments. The mice, having been in holding quarters for a minimum of 5 days, were placed in plexi-glass cages 17cm by 20cm with sanicel bedding. Five of the 6 groups of 10 mice each, received reserpine, 5mg/kg, i.p. The reserpine (lOmg) was dissolved in 0.06ml glacial acetic acid and 20ml water. The sixth group was not pretreated. Two hours later the mice were dosed with either water or test compound at various doses. The group which had not received the reserpine pretreatment was also dosed with water; consequently a postive and a negative control group were present. The test compounds were administered orally (p.o.) in logarithmically spaced doses.
One hour after the oral dosing, body temperatures were taken from 8 mice from each group utilizing a Yellow Springs-Telethermometer unit. Repeated determinations of body temperature occured at 2, 3 and 4 hours post-drug.
The percent reversal of the reserpine-induced hypothermia was determined according to the formula: [formula] and subjected to an analysis of variance (X = average body temperature of mice from the group). Statistically significant reversal of the reserpine-induced hypothermia was used as a criterion for determining the minimum effective dose (MED) of the compound.

[2] = system: tonic extensor seizure; assay: Anticonvulsant activity - maximal electroshock test; format: in vivo, mice; settings: Mus musculus, ip, 0.25 h; i.p. fifteen minutes prior to transcorneal electroshock (50 mamp. 0.2sec); antagonism of tonic extensor seizure
Procedure: ANTICONVULSANT ACTIVITY - MAXIMAL ELECTROSHOCK TEST This assay was used to evaluate the anticonvulsant activity of compounds of this invention. Groups of 10 male Hilltop ICR mice were utilized for these experiments. At fifteen minutes prior to testing, drug or vehicle was administered intraperitoneally (i.p.). At the appropriate time the mice were subjected to a transcorneal electroshock generated by a stimulator (Woodbury, L.A. and Davenport, V.D.: Design and Use Of A New Electroshock Seizure Apparatus And Analysis Of Factors Altering Seizure Threshold And Pattern. Arch. Intern. Pharmacodyn. Ther. 92: 97-107,1952). The shock (50 […]) elicited three types of seizures: tonic extension, tonic flexion and clonic seizures. For the purposes of this test, the antagonism of the tonic extensor seizure was utilized as an endpoint. The quantal data accumulated from several doses of a test compound were utilized to determine an ED50 (Litchfield, J.F. and Wilcoxon, F.: A Simplified Method of Evaluating Dose-effect Experiments). J. Pharmacol. Exp. Ther. 96: 99-113, 1949).

[3] = system: jaw opening reflex; assay: Centrally acting skeletal muscle relaxant assay - cat linguomandibular reflex preparation; format: in vivo; settings: Felis catus, iv, anesthetized cats; percent reduction of the jaw opening reflex
Procedure: This assay is used to assess the centrally acting skeletal muscle relaxant properties of compounds of this invention.
Mongrel cats weighing 2-Skg were anesthetized with phenobarbital sodium, 180mg/kg, i.p. The anesthetized cat was placed in a stereotaxic headholder, shaved, and the femoral artery and vein were cannulated. The cannula from the fermoral artery was connected to a Statham Model P-23 AC Transducer in order to monitor blood pressure. The femoral vein was utilized for the administration of drugs.
The cat was placed in a prone position and two electrodes, consisting of wound clips soldered to wires, were attached bilaterally to the base of the tongue. These leads were then connected to a Grass S8 stimulator. A Grass FT-03 Transducer was placed beneath the jaw. […] Signals from the transducers were recorded on a Beckman Polygraph.
The stimulator was set to deliver single pulses of 2.5msec duration. […] Once the response had ben determined to be stable, drug solution was administered i.v. in logarithmically spaced doses. […]
The percent reduction of the jaw opening reflex was utilized for determining the activity of the drug. Comparisons of the relative block of the reflex, the steepness of the dose response curve, and the cardiovascular sequel were evaluated and an ED50 determined.

[4] = Acute intraperitoneal toxicity and behavior in mice (Example 14); settings: mouse, in vivo, ip
[5] = system: male mice (ICR-Simonsen); assay: as above; settings: for No. of Deaths: 5 mice

Structure (SMILES)	minimal effective dose [1] [mg/kg]	also measured
NC1=NCC(c2cccc(Br)c2)CN1 (centres unmarked) [5|H|3-Br|H|H-, 2-amino-5-(3-bromophenyl)-1,4,5,6-tetrahydropyrimidine]	10	ED50 [2]: 47 mg/kg
COC(=O)NC1=NCC(c2cccc(OC)c2)CN1 (centres unmarked) [5|H|3-MeO|H|CH3OC(O)-, 2-methoxycarbonylamino-5-(3-methoxyphenyl)-1,4,5,6-tetrahydropyrimidine]	10	ED50 [3]: 7 mg/kg
CCOC(=O)NC1=NCC(c2ccccc2)CN1 (centres unmarked) [5|H|H|H|CH3CH2OC(O)-, 2-ethoxycarbonylamino-5-phenyl-1,4,5,6-tetrahydropyrimidine]	0.04	–
COC(=O)NC1=NCC(c2ccccc2)CN1C (stereo not drawn) [5|H|H|CH3|CH3OC(O)-, l-Methyl-2-methoxycarbonylamino-5-phenyl-1,4,5,6-tetrahydropyrimidine]	0.04	–
COC(=O)NC1=NC(c2cccc(OC)c2)CCN1 (centres unmarked) [4|H|3-CH3O|H|CH3OC(O)]	10	–
CCCOC(=O)NC1=NC(c2ccccc2)CCN1 (centres unmarked) [2-n-propoxycarbonylamino-4-phenyl-1,4,5,6-tetrahydropyrimidine]	10	ED50 [2]: 30 mg/kg
CCCOC(=O)NC1=NCC(c2cccc(Br)c2)CN1 (centres unmarked) [5|H|3-Br|H|CH3(CH)2OC(O)-, 2-n-propoxycarbonylamino-5-(3-bromophenyl)-1,4,5,6-tetrahydropyrimidine]	1	–
COC(=O)NC1=NCC(c2ccccc2Cl)CN1 (centres unmarked) [5|H|2-Cl|H|CH3OC(O)-, 2-methoxycarbonylamino-5-(2-chlorophenyl)-1,4,5,6-tetrahydropyrimidine]	10	ED50 [2]: 42 mg/kg
CC(C)OC(=O)NC1=NCC(c2c(Cl)cccc2Cl)CN1 (centres unmarked) [5|2-Cl|6-Cl|H|(CH3)2CHOC(O)-, 2-i-propoxycarbonylamino-5-(2,6-dichlorophenyl)-1,4,5,6-tetrahydropyrimidine]	1	–
COC(=O)NC1=NC(c2ccc(F)cc2)CCN1 (centres unmarked) [4|H|4-F|H|CH3COC(O)-, 2-methoxycarbonylamino-4-(4-fluorophenyl)-1,4,5,6-tetrahydropyrimidine]	1	–
COC(=O)NC1=NCC(c2ccccc2)CN1 (centres unmarked) [5|H|H|H|CH3OC(O)-, 2-methoxycarbonylamino-5-phenyl-1,4,5,6-tetrahydropyrimidine]	0.0006	–
COC(=O)NC1=NCC(c2ccccc2)CN1.O=C(O)/C=C\C(=O)O (centres unmarked) [2-Methoxycarbonylamino-5-phenyl-1,4,5,6-tetrahydropyrimidine, maleate]	–	LD50 [4]: 26.5 mg/kg; No. of Deaths ([5]; Dose 10 mg/kg i.p.): 0; No. of Deaths ([5]; Dose 15 mg/kg i.p.): 0; No. of Deaths ([5]; Dose 20 mg/kg i.p.): 0; No. of Deaths ([5]; Dose 25 mg/kg i.p.): 0; No. of Deaths ([5]; Dose 27.5 mg/kg i.p.): 4; No. of Deaths ([5]; Dose 30 mg/kg i.p.): 5; onset of effects ([5]; after drug administration, i.p., mice): less than five minutes; surviving animals appeared normal ([5]; after drug, i.p., mice): 90 to 120 min; Behavioral effects observed ([5]; i.p., 10-30 mg/kg, observed for 2 hours post drug): decreased motor activity, ataxia exophthalmia piloerection increased induced activity, dysporea (increased depth and decreased rate of respiration), lacrimation twitching, moderate clonic convulsions and death
COC(=O)NC1=NCC(c2cccc(Br)c2)CN1 (centres unmarked) [5|H|3-Br|H|CH3OC(O)-, 2-methoxycarbonylamino-5-(3-bromophenyl)-1,4,5,6-tetrahydropyrimidine]	1	–
COC(=O)NC1=NC(c2ccccc2C(F)(F)F)CCN1 (centres unmarked) [4|H|2-CF3|H|CH3OC(O)-, 2-methoxycarbonylamino-4-(2-trifluoromethylphenyl)-1,4,5,6-tetrahydropyrimidine]	1	ED50 [2]: 44 mg/kg
NC1=NCC(c2ccccc2)CN1 (centres unmarked) [5|H|H|H|H, 2-amino-5-phenyl-1,4,5,6-tetrahydropyrimidine]	0.01	–
CC(C)OC(=O)NC1=NCC(c2ccccc2)CN1 (centres unmarked) [5|H|H|H|(CH3)2CHOC(O)-, 2-isopropoxycarbonylamino-5-phenyl-1,4,5,6-tetrahydropyrimidine]	0.04	–
NC1=NC(c2ccccc2)CCN1 (centres unmarked) [4|H|H|H|H, 2-amino-4-phenyl-1,4,5,6-tetrahydropyrimidine]	10	–
COC(=O)NC1=NCC(c2ccc(Cl)cc2Cl)CN1 (centres unmarked) [5|2-Cl|4-Cl|H|CH3OC(O)-, 2-methoxycarbonylamino-5-(2,4-dichlorophenyl)-1,4,5,6-tetrahydropyrimidine]	1	ED50 [3]: 25 mg/kg
COC(=O)NC1=NCC(c2ccc(F)cc2)CN1 (centres unmarked) [5|H|4-F|H|CH3OC(O)-, 2-methoxycarbonylamino-5-(4-fluorophenyl)-1,4,5,6-tetrahydropyrimidine]	0.15	ED50 [2]: 100 mg/kg
COC(=O)NC1=NCC(c2c(Cl)cccc2Cl)CN1 (centres unmarked) [5|2-Cl|6-Cl|H|CH3OC(O)-, 2-methoxycarbonylamino-5-(2,6-dichlorophenyl)-1,4,5,6-tetrahydropyrimidine]	0.15	–
COC(=O)NC1=NCC(c2ccc(C(C)C)cc2)CN1 (centres unmarked) [5|H|4-(CH3)2CH-|H|CH3OC(O), 2-methoxycarbonylamino-5-(4-isopropylphenyl)-1,4,5,6-tetrahydropyrimidine]	–	ED50 [2]: 55 mg/kg
COC(=O)NC1=NC(c2ccccc2)CCN1 (centres unmarked) [4|H|H|H|CH3OC(O)-, 2-methoxycarbonylamino-4-phenyl-1,4,5,6-tetrahydropyrimidine]	2.5	–
